Like-named read-outs stand apart in the source and are kept apart here.
Legend:
[1] = Caco-2 cell monolayer permeability assay; assay type: in vitro ADME, human; details: human
Excerpt: (§1) In order to test the ability of the payloads and/or conjugates to enter cells, a cell monolayer assay was utilized employing Caco-2 cells (a human epithelial colorectal adenocarcinoma cell line).
(§2) Experimental Procedure: Caco-2 cells grown in tissue culture flasks are trypsinized, suspended in medium, and the suspensions were applied to wells of a Millipore 96 well Caco-2 plate. The cells are allowed to grow and differentiate for three weeks, feeding at 2-day intervals. For Apical to Basolateral (A→B) permeability, the test agent is added to the apical (A) side and amount of permeation is determined on the basolateral (B) side; for Basolateral to Apical (B→A) permeability, the test agent is added to the B side and the amount of permeation is determine on the A side.

Caco-2 cells = assay: Caco-2 cell monolayer permeability assay; assay type: in vitro ADME, human; details: Caco-2
Excerpt: as §1, §2

PI3K = assay: Cell free PI3K enzyme assay; assay type: biochemical; details: FIG. 6, in words
Excerpt: Therefore, conjugating a PI3K enzyme inhibitor payload to a HSP90 targeting ligand masked the PI3K enzyme inhibition.

[2] = system: LS174t colon tumor xenograft; assay: LS174t colon tumor xenograft model, efficacy; assay type: in vivo, mice; details: FIG. 3A, in words
[3] = system: SKOV3 (ovarian cancer) tumor xenograft; assay: SKOV3 ovarian cancer xenograft; assay type: in vivo, mice; details: Conjugate 38 IV 25 mg/kg vs Copanlisib 6 mg/kg, FIG. 3B
Experimental: (§3) PIK3A mutations occur in about 15% to 30% of breast, endometrial and colon cancers. In additional to LS174t model, other xenograft models harboring common PIK3CA mutations were chosen for testing. In one study, mice bearing SKOV3 (ovarian cancer) tumor xenograft were treated with IV dose of Conjugate 38 at 25 mg/kg and Copanlisib at 6 mg/kg. Doses were selected based on the maximum tolerated dose. In another study, mice bearing BT474 (breast cancer) tumor xenograft were treated with IV dose of Conjugate 38 at 25 mg/kg and Copanlisib at 6 mg/kg.

human total EbB2/Her2 = assay: HER2 degradation assay (ELISA) in BT474 cells; assay type: cell-based; details: BT-474, 16 hrs, read-out: Her2 Degradation IC50 Abs IC50
Experimental: BT474 (breast cancer) cells were plated at 12,000 cells per well and incubated for 20-24 hrs at 37° C. at 5% CO2. Post cell incubation, compounds were reconstituted in DMSO to a stock concentration of 5 mM. A compound plate was then prepared containing a 10 point dilution in DMSO. 2 uL of these dilutions were then added to the cells for a final working concentration of 5 uM to 0.0003 uM. Compounds and cells were incubated for 16 hrs. Media was then removed, cells washed, lysed, and analyzed for human total EbB2/Her2 levels by ELISA.

[4] = system: H460 lung cancer xenograft; assay: H460 lung cancer xenograft model; assay type: in vivo, mice; details: FIG. 2, in words
[5] = Glucose levels post dosing in mice; assay type: in vivo; details: FIG. 7, in words
Excerpt: In an in vivo study in mice, glucose levels were monitored post PI3K inhibitor (Copanlisib) and Conjugate 38 dosing. […] Therefore, conjugating a PI3K enzyme inhibitor payload to a HSP90 targeting ligand reduced the normal tissue activity of glucose increase in mice.

[6] = system: BT474 (breast cancer) tumor xenograft; assay: BT474 breast cancer xenograft; assay type: in vivo, mice; details: Conjugate 38 IV 25 mg/kg vs Copanlisib 6 mg/kg, FIG. 3C
Experimental: as §3

[7] = system: H1975 cells (non-small cell lung cancer) xenograft; assay: H1975 xenograft study; assay type: in vivo, mice; details: 12.5 mg/kg twice a week intravenously, Day 19, compared to vehicle control
Experimental: Female athymic nude mice were implanted with 5×10^6 H1975 cells (non-small cell lung cancer) per mouse in the right hind flank. Once tumors reached a volume of 50 mm^3 to 150 mm^3 they were randomized into two groups of ten to obtain a group average starting tumor volume of 114.4 mm^3. Mice were then treated with either a vehicle control or 12.5 mg/kg of Conjugate 38. All dosing was carried out twice a week intravenously for three weeks, with five total doses being administered. Tumor volumes of the mice were measured. Final study measurements were taken on Day 19, at which point the study was terminated due to vehicle control tumor volumes approaching IACUC limits.

NCI-H460 cells = assay: NCI-H460 tumor cell cytotoxicity assay (CellTiter-Glo); assay type: cell-based; details: Homo sapiens, NCI-H460, 48 h
Experimental: NCI-H460 cells (non-small cell lung cancer) were plated at 500 cells per well and incubated for 20-24 hrs at 37° C. at 5% CO2. Post cell incubation, compounds were reconstituted in DMSO to a stock concentration of 200 uM. A compound plate was then prepared containing a 10 point dilution in RPMI+10% FBS+0.25% DMSO. 5 uL of the dilution was then added for a final working concentration range of 10 uM to 0.0005 uM. Compounds and cells were then incubated for 48 hrs. Cells were then analyzed by CellTiter-Glo for ATP levels and percent inhibition calculated.

[8] = assay type: in vivo, mice; details: LS174t xenograft, FIG. 4
Experimental: Accumulation and retention of Conjugate 38 was tested in this tumor xenograft model.

pAKT (S473) = assay: LS174t tumor xenograft, pharmacodynamic response; assay type: in vivo, mice; details: through the course of 48 h, FIG. 5, in words
H460 mouse tumor PK = assay type: in vivo, mice; details: for concentration at 96 h / concentration at 144 h: mouse, in vivo, 25 mg/kg, 25 mg/kg IV, read-out: Conjugate 38 Conc. in H460 Mouse Tumor
Experimental: Conjugate and unconjugated payload accumulation at 96 and 144 h in H460 tumor-bearing mice. Conjugate 38 was dosed at 25 mg/kg intravenously.

MEK = MEK activity (FIG. 8C); assay type: biochemical; details: in words
Excerpt: The activity of the respective payload is blocked until the linker moiety gets cleaved in the tumor and releases active unblocked payload. Through the HSP90 platform, toxicity is mitigated by masking the payload's active site until it can be delivered to the tumor.
FIG. 8A compares the activity of Conjugate 45 and its payload (talazoparib). FIG. 8B compares the activity of Conjugate 46 and its payload (ulixertinib). FIG. 8C compares the activity of Conjugate 47 and its payload TAK-733. The data further support that attaching a payload to a HSP90 binding ligand blocks the target activity of the payload. The HSP90 bindings of the HSP90 ligands are not affected.

Structure (SMILES): COc1c(OCCCN2CCNCC2)ccc2c1N=C(NC(=O)c1cnc(N)nc1)N1CCN=C21 [Compound 27A]
- Papp A→B ([1]; Caco-2, A to B direction): 0.0032 ×10⁻⁶ cm/s
- Papp B→A ([1]; Caco-2, B to A direction): 0.0162 ×10⁻⁶ cm/s
- permeability in words (Caco-2 cells): very low permeability

Structure (SMILES): CCNC(=O)c1nnc(-c2cc(C(C)C)c(O)cc2O)n1-c1ccc(CN2CCN(C(=O)Cc3ccc(OC(=O)N4CCN(CCCOc5ccc6c(c5OC)N=C(NC(=O)c5cnc(N)nc5)N5CCN=C65)CC4)cc3)CC2)cc1 [Compound 38]
- PI3K enzyme inhibition compared with payload (PI3K): much less active than its PI3K enzyme inhibitor payload
- efficacy (tumor growth inhibition) in LS174t xenograft [2]: significant tumor growth inhibition
- efficacy compared with combination therapy of copanlisib and ganetespib ([2]; LS174t xenograft): worked much better than a combination therapy comprising copanlisib and ganetespib
- tumor growth inhibition compared to Copanlisib [3]: statistically significant increase in tumor growth inhibition
- IC50 (human total EbB2/Her2): 39 nM
- efficacy (tumor volumes) in H460 xenograft [4]: superior to Copanlisib alone or ganetespib alone
- glucose concentration after dosing [5]: lower glucose concentrations than mice treated with the PI3K inhibitor payload
- tumor growth inhibition compared to Copanlisib [6]: statistically significant increase in tumor growth inhibition
- tumor growth inhibition [7]: 70.8%
- IC50 (NCI-H460 cells; n = 1, read-out: H460 in vitro cytotoxicity): 8.2 nM
- IC50 (NCI-H460 cells; n = 2, read-out: H460 in vitro cytotoxicity): 7.4 nM
- time remaining in the tumor xenograft and releasing active PI3K inhibitor payload [8]: > 96 h
- inhibition of PI3K shown by pAKT (S473) (pAKT (S473)): significant reduction of pAKT (S473)
- accumulation and retention in xenograft tumor tissue (H460 mouse tumor PK; H460 tumor-bearing mice, in words): accumulated and was retained in xenograph tumor tissue
- concentration at 96 h (H460 mouse tumor PK; Animal ID 1): 6.2 µM
- concentration at 96 h (H460 mouse tumor PK; Animal ID 2): 7.6 µM
- concentration at 96 h (H460 mouse tumor PK; Animal ID 3): 6.25 µM
- concentration at 96 h (H460 mouse tumor PK; Mean): 6.68 µM
- concentration at 144 h (H460 mouse tumor PK; Animal ID 1): 840 nM
- concentration at 144 h (H460 mouse tumor PK; Animal ID 2): 3610 nM
- concentration at 144 h (H460 mouse tumor PK; Animal ID 3): 1570 nM
- concentration at 144 h (H460 mouse tumor PK; Mean): 2010 nM

Structure (SMILES): CCNC(=O)c1nnc(-c2cc(C(C)C)c(O)cc2O)n1-c1ccc(N(C)C2CCN(C(=O)CCC(=O)OC[C@H](O)Cn3cnc4c(c(Nc5ccc(I)cc5F)c(F)c(=O)n4C)c3=O)CC2)cc1 [Conjugate 47]
- MEK activity compared with payload TAK-733 (MEK): lower than its payload
